Data as given in PMC6364417, “Kinase inhibitor library screening identifies synergistic drug combinations effective in sensitive and resistant melanoma cells” (Journal of Experimental & Clinical Cancer Research : CR, 2019).

Tests used:
Assay in all cases: Kinase inhibitor library screening, PrestoBlue cell viability, 1 or 10 μM, 72 h
[1] = tested on: A375-XP cells (Vemurafenib-resistant); settings: for cell viability (kinase inhibitor library screening): A375 XP, in %
A375 cells (parental) = settings: for cell viability (kinase inhibitor library screening): A375 Parental, in %
[2] = tested on: 501Mel-XP cells (Vemurafenib-resistant); settings: for cell viability (kinase inhibitor library screening): 501Mel XP, in %
IGR37 cells (parental) = settings: for cell viability (kinase inhibitor library screening): IGR37 Parental, in %
[3] = tested on: IGR37-XP cells (Vemurafenib-resistant); settings: for cell viability (kinase inhibitor library screening): IGR37 XP, in %
[4] = tested on: 501Mel-GP cells (Dabrafenib-resistant); settings: for cell viability (kinase inhibitor library screening): 501Mel GP, in %
501Mel cells (parental) = settings: for cell viability (kinase inhibitor library screening): 501Mel Parental, in %
Procedure, shortened: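 Normalised to untreated controls, viability percentages came from PrestoBlue measured on a microplate reader following 72 h incubation with drug. Each line was assayed at least twice.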

[5] = tested on: IGR37-GP cells (Dabrafenib-resistant); settings: for cell viability (kinase inhibitor library screening): IGR37 GP, in %
[6] = tested on: A375-GP cells (Dabrafenib-resistant); settings: for cell viability (kinase inhibitor library screening): A375 GP, in %

| SMILES | cell viability (kinase inhibitor library screening) ([1]; 1μΜ) | cell viability (kinase inhibitor library screening) ([1]; 10μΜ) | cell viability (kinase inhibitor library screening) (A375 cells (parental); 1μΜ) | cell viability (kinase inhibitor library screening) (A375 cells (parental); 10μΜ) | cell viability (kinase inhibitor library screening) ([2]; 1μΜ) | cell viability (kinase inhibitor library screening) ([2]; 10μΜ) | cell viability (kinase inhibitor library screening) (IGR37 cells (parental); 10μΜ) | cell viability (kinase inhibitor library screening) ([3]; 1μΜ) | cell viability (kinase inhibitor library screening) ([3]; 10μΜ) | cell viability (kinase inhibitor library screening) ([4]; 1μΜ) | cell viability (kinase inhibitor library screening) ([4]; 10μΜ) | cell viability (kinase inhibitor library screening) (501Mel cells (parental); 1μΜ) | cell viability (kinase inhibitor library screening) (501Mel cells (parental); 10μΜ) | cell viability (kinase inhibitor library screening) ([5]; 10μΜ) | cell viability (kinase inhibitor library screening) ([6]; 1μΜ) | cell viability (kinase inhibitor library screening) ([6]; 10μΜ) | also measured |
| --- | --- | --- | --- | --- | --- | --- | --- | --- | --- | --- | --- | --- | --- | --- | --- | --- | --- |
| CCS(=O)(=O)N1CC(CC#N)(n2cc(-c3ncnc4[nH]ccc34)cn2)C1 [Baricitinib (LY3009104)] | – | – | – | – | – | – | – | – | – | – | – | – | – | – | – | – | viability at 1 µM ([1]; Homo sapiens, A-375, 72 h, read-out: cell viability, A375 XP, 1μΜ): 105%; viability at 10 µM ([1]; Homo sapiens, A-375, 72 h, read-out: cell viability, A375 XP, 10μΜ): 102%; viability at 1 µM (A375 cells (parental); Homo sapiens, A-375, 72 h, read-out: cell viability, A375 Parental, 1μΜ): 103%; viability at 10 µM (A375 cells (parental); Homo sapiens, A-375, 72 h, read-out: cell viability, A375 Parental, 10μΜ): 94.8%; viability at 1 µM ([2]; Homo sapiens, 72 h, read-out: cell viability, 501Mel XP, 1μΜ): 98.5%; viability at 10 µM ([2]; Homo sapiens, 72 h, read-out: cell viability, 501Mel XP, 10μΜ): 74.5%; viability at 1 µM (IGR37 cells (parental); Homo sapiens, IGR-37, 72 h, read-out: cell viability, IGR37 Parental, 1μΜ): 99.6%; viability at 10 µM (IGR37 cells (parental); Homo sapiens, IGR-37, 72 h, read-out: cell viability, IGR37 Parental, 10μΜ): 98.8%; viability at 1 µM ([3]; Homo sapiens, IGR-37, 72 h, read-out: cell viability, IGR37 XP, 1μΜ): 96.5%; viability at 10 µM ([3]; Homo sapiens, IGR-37, 72 h, read-out: cell viability, IGR37 XP, 10μΜ): 75.3%; viability at 1 µM ([4]; Homo sapiens, 72 h, read-out: cell viability, 501Mel GP, 1μΜ): 104%; viability at 10 µM ([4]; Homo sapiens, 72 h, read-out: cell viability, 501Mel GP, 10μΜ): 83.8%; viability at 1 µM (501Mel cells (parental); Homo sapiens, 72 h, read-out: cell viability, 501Mel Parental, 1μΜ): 95%; viability at 10 µM (501Mel cells (parental); Homo sapiens, 72 h, read-out: cell viability, 501Mel Parental, 10μΜ): 88.9%; viability at 1 µM ([5]; Homo sapiens, IGR-37, 72 h, read-out: cell viability, IGR37 GP, 1μΜ): 92%; viability at 10 µM ([5]; Homo sapiens, IGR-37, 72 h, read-out: cell viability, IGR37 GP, 10μΜ): 91.5%; viability at 1 µM ([6]; Homo sapiens, A-375, 72 h, read-out: cell viability, A375 GP, 1μΜ): 106%; viability at 10 µM ([6]; Homo sapiens, A-375, 72 h, read-out: cell viability, A375 GP, 10μΜ): 88.4% |
| COc1cc(Nc2c(C#N)cnc3cc(OCCCN4CCN(C)CC4)c(OC)cc23)c(Cl)cc1Cl [Bosutinib (SKI-606)] | 83.7 | 30.5 | 80.1 | 39.3 | 103.1 | -0.2 | 1.8 | 98.8 | 4.2 | 91.9 | -0.266 | 98.4 | 0.645 | 20.7 | 85.6 | 32.7 | cell viability (kinase inhibitor library screening) (IGR37 cells (parental); 1μΜ): 97.3; cell viability (kinase inhibitor library screening) ([5]; 1μΜ): 95.0 |
| Cc1cc2c(F)c(Oc3ncnn4cc(OC[C@@H](C)O)c(C)c34)ccc2[nH]1 [Brivanib (BMS-540215)] | 104.1 | 89.7 | 105.2 | 84.3 | 100.3 | 80.7 | 99.8 | 107.9 | 73.1 | 106.3 | 89.6 | 104.3 | 93.4 | 95.2 | 103.4 | 79.9 | – |
